The text below walks through data of patent US9193699B2, “Apoptosis inducing compounds” (INSTITUT NATIONAL DE LA SANTE ET DE LA RECHERCHE MEDICALE …, priority 2011, dated 2015).

Assay [1] has as its system Human breast tumor SUM149 cells. Kind of assay: Inhibition of tumor cell growth (alamar blue), SUM149. The format is cell-based. To be noted: 120 h, calculated on the basis of cell growth inhibition, day 5, alamar blue, read-out: IC50 for the inhibition of SUM149 tumor cells growth. The method, then: (§1) All biological experiments (Examples 2 to 9) have been performed with recommended cell line specific culture medium. For SUM149 and L226, culture medium is supplemented with 10% Fetal Calf Serum. For HME-1 and MCF-10A, culture medium is supplemented with 5% Horse Serum.
Human breast tumor SUM149 cells (Inflammatory Breast Cancer (IBC) of basal subtype) were plated in a 96 well plate at 3000 cells/100 μL at 37° C. in 5% CO2. Compounds 1, 3, 4, 5, 6, 7, 8, 9, 10, 11, 12, 13, 14 at 10 μM were added at day 0 and day 3. The number of viable cells was determined in triplicate at day 5 by incubating 10 μL of the alamar blue staining solution for 2 hours at 37° C. (FIG. 1).
Human breast tumor SUM149 cells were plated in a 96 well plate at 3000 cells/100 μL at 37° C. in 5% CO2. Serial dilutions of drugs (compounds 1, 3 or 4) ranging from 20 μM to 300 nM were added at day 0 and day 3. The number of viable cells was determined in triplicate at day 5 by incubating 10 μL of the alamar blue staining solution for 2 hours at 37° C. (FIG. 2).
IC50 values of compounds 1-14 for the inhibition of SUM149 and L226 tumor cells growth were measured (according to the experimental procedure of Examples 2 and 3):
Human breast tumor SUM149 cells were plated in a 96 well plate at 3000 cells/100 μL at 37° C. in 5% CO2 in recommended medium containing 10% FCS or in synthetic medium without FCS. Serial dilutions of drug (compound 4) ranging from 10 μM to 0.16 μM were added at day 0 and day 3. The number of viable cells was determined in triplicate at day 5 by incubating 10 μL of the alamar blue staining solution for 2 hours at 37° C. (FIG. 11). The […] in recommended medium containing 10% FCS was measured at 2 μM, while it was measured at 0.6 μM without FCS.

The test system of assay [2] is caspase-3 and caspase-7 in SUM149 cells. Briefly: Caspase 3/7 activation (Caspase-Glo 3/7) in SUM149 tumor cells. To be noted: Homo sapiens, R=RLU at 20 μM/RLU at 0 μM, 24 h, read-out: Caspase 3/7 activation R (RLU fold increase from untreated cells). Format: cell-based. The protocol: Human breast tumor SUM149 cells were plated in a 96 well plate at 10000 cells/100 μL at 37° C. in 5% CO2. Serial dilutions of drugs (compounds 1, 3 or 4) ranging from 20 μM to 300 nM were added at day 0. Active caspase-3 and caspase-7 were measured in triplicate after 24 h treatment by incubating 50 μL of the Caspase-Glo 3/7 reagent for 60 min at 25° C. This reagent containing the proluminescent tetrapeptide sequence DEVD in a cell lysis buffer (Promega) (FIG. 6).
(§2) Caspase 3/7 activation in SUM149 and L226 tumor cells was measured.
(§3) The calculated values R correspond to Relative Luminescence Units (RLU) fold increase from untreated cells (R=RLU at 20 μM/RLU at 0 μM).

In assay [3] the test system is caspase-3 and caspase-7 in L226 cells. Kind of assay: Caspase 3/7 activation (Caspase-Glo 3/7) in L226 tumor cells. The format is cell-based. The note with it: Homo sapiens, R=RLU at 20 μM/RLU at 0 μM, 24 h, read-out: Caspase 3/7 activation R (RLU fold increase from untreated cells). The method, then:
Human breast tumor L226 cells were plated in a 96 well plate at 10000 cells/100 μL at 37° C. in 5% CO2. Serial dilutions of drugs (compounds 1, 3 or 4) ranging from 20 μM to 300 nM were added at day 0. Active caspase-3 and caspase-7 were measured in triplicate after 24 h treatment by incubating 50 μL of the Caspase-Glo 3/7 reagent for 60 min at 25° C. This reagent containing the proluminescent tetrapeptide sequence DEVD in a cell lysis buffer (Promega) (FIG. 7).
as §2, §3

Assay [4] has as its system caspase-3 and caspase-7 in MCF-10A cells. Kind of assay: Caspase 3/7 activation (Caspase-Glo 3/7) in MCF-10A normal cells. Format: cell-based. The note with it: Homo sapiens, R=RLU at 20 μM/RLU at 0 μM, 24 h, read-out: Caspase 3/7 activation R (RLU fold increase from untreated cells). The protocol:
Human normal mammary epithelial MCF-10A cells were plated in a 96 well plate at 10000 cells/100 μL at 37° C. in 5% CO2. Serial dilutions of drugs (compounds 1, 3 or 4) ranging from 20 μM to 300 nM were added at day 0. Active caspase-3 and caspase-7 were measured in triplicate after 24 h treatment by incubating 50 μL of the Caspase-Glo 3/7 reagent for 60 min at 25° C. This reagent containing the proluminescent tetrapeptide sequence DEVD in a cell lysis buffer (Promega) (FIG. 9).
as §3
(§4) Caspase 3/7 activation in MCF-10A and HME-1 normal cells was also measured.

For assay [5], the system named is Human normal mammary epithelial MCF-10A cells. Briefly: Effect on growth of normal cells (alamar blue), MCF-10A. Format: cell-based. The note with it: calculated on the basis of cell growth inhibition. The method, then: as §1
Human normal mammary epithelial MCF-10A cells were plated in a 96 well plate at 3000 cells/100 μL at 37° C. in 5% CO2. Serial dilutions of drugs (compounds 1, 3 or 4) ranging from 20 μM to 300 nM were added at day 0 and day 3. The number of viable cells was determined in triplicate at day 5 by incubating 10 μL of the alamar blue staining solution for 2 hours at 37° C. (FIG. 5).
(§5) IC50 values of compounds 1-14 for the inhibition of MCF-10A and HME-1 normal cells growth were also measured (according to the experimental procedure of Examples 4 and 5): […]

Assay [6] relates to Human normal mammary epithelial HME-1 cells. Kind of assay: Effect on growth of normal cells (alamar blue), HME-1. The format is cell-based. The note with it: HME1, calculated on the basis of cell growth inhibition. The method, then: as §1
Human normal mammary epithelial HME-1 cells were plated in a 96 well plate at 3000 cells/100 μL at 37° C. in 5% CO2. Serial dilutions of drugs (compounds 1, 3 or 4) ranging from 20 μM to 300 nM were added at day 0 and day 3. The number of viable cells was determined in triplicate at day 5 by incubating 10 μL of the alamar blue staining solution for 2 hours at 37° C. (FIG. 4).
as §5

Assay [7] concerns caspase-3 and caspase-7 in HME-1 cells. Briefly: Caspase 3/7 activation (Caspase-Glo 3/7) in HME-1 normal cells. Format: cell-based. The note with it: Homo sapiens, HME1, R=RLU at 20 μM/RLU at 0 μM, 24 h, read-out: Caspase 3/7 activation R (RLU fold increase from untreated cells). The protocol:
Human normal mammary epithelial HME-1 cells were plated in a 96 well plate at 10000 cells/100 μL at 37° C. in 5% CO2. Serial dilutions of drugs (compounds 1, 3 or 4) ranging from 20 μM to 300 nM were added at day 0. Active caspase-3 and caspase-7 were measured in triplicate after 24 h treatment by incubating 50 μL of the Caspase-Glo 3/7 reagent for 60 min at 25° C. This reagent containing the proluminescent tetrapeptide sequence DEVD in a cell lysis buffer (Promega) (FIG. 8).
as §3, §4

For assay [8], the system named is Human breast tumor SUM149 cells. Kind of assay: Annexin V/7-AAD apoptosis with or without Z-VAD-FMK. The format is cell-based. The note with it: 2.5 to 20 μM, 48 h, with Z-VAD-FMK pan-caspases inhibitor. The method, then:
Human breast tumor SUM149 cells were plated in dishes at a concentration of 10^6 cells/[…] Cells were treated with compound 3 or compound 4 (2.5 to 20 μM) for 48 h, with or without Z-VAD-FMK, a pan-caspases inhibitor. Cells were double stained with annexinV-FITC and 7-AAD to measure cell apoptosis.

For assay [9], the system named is Human breast tumor L226 cells. Kind of assay: Inhibition of tumor cell growth (alamar blue), L226. The note with it: 120 h, calculated on the basis of cell growth inhibition, day 5, alamar blue. The format is cell-based. The protocol: as §1
Human breast tumor L226 cells (Inflammatory Breast Cancer (IBC) of ERB-B2 subtype) were plated in a 96 well plate at 3000 cells/100 μL at 37° C. in 5% CO2. Serial dilutions of drugs (compounds 1, 3 or 4) ranging from 20 μM to 300 nM were added at day 0 and day 3. The number of viable cells was determined in triplicate at day 5 by incubating 10 μL of the alamar blue staining solution for 2 hours at 37° C. (FIG. 3).
IC50 values of compounds 1-14 for the inhibition of SUM149 and L226 tumor cells growth were measured (according to the experimental procedure of Examples 2 and 3): […]

For assay [10], the system named is tumors derived from MMTC-ErbB2/neu mice. Briefly: TUNEL assay of tumor apoptosis in MMTV-ErB2/Neu mice. Format: in vivo. The note with it: 100 mg/kg for 30 days. The protocol: DNA fragmentation in apoptotic cells was analyzed by the TUNEL assay (ApopTag detection kit, Millipore) as recommended by the manufacturer.
Briefly, 4 μm sections of paraffin-embedded fixed tissue from tumors derived from MMTC-ErbB2/neu mice treated with vehicle or with Compound 12, 4 or 8 (100 mg/kg) for 30 days, were deparaffined with successive histolemon and ethanol washes, then treated with 20 μg/mL proteinase K for 15 min at room temperature. Endogenous peroxidise was quenched with 3% hydrogen peroxide. […] Coloration was performed using the diaminobenzidine mixed substrate (Dako). Counterstaining was done with a solution of 1% methyl green for 5 min at room temperature. After distilled water and N-butanol washes, specimens were mounted in Pertex medium (CellPath). Observations were made using the Leica DMD108 digital microimaging device (Leica Microsystems GmbH).

A further assay concerns Cancer stem cells (CSCs). Kind of assay: Aldefluor assay of cancer stem cells (ALDH+ cells), FACS. Format: cell-based. To be noted: FIG. 12B. The method, then: Cancer stem cells (CSCs) are thought to contribute to tumor initiation, maintenance, resistance to therapy, and metastasis progression. Treatment with drugs enrich in resistant CSCs. In vitro, breast CSCs express high level of aldehyde dehydrogenase-1 (ALDH1), which can be detected by using a commercial assay (CSCs are “Aldefluor” positive). Briefly, cells were incubated in Aldefluor assay buffer containing ALDH substrate (BAAA (BODIPY®—aminoacetaldehyde), 1 μmol/L per 1×10^6 cells). Negative control was done in the presence of diethylaminobenzaldehyde (DEAB), a specific ALDH inhibitor. Cells were then incubated for 40 min at 37° C. Cells were analyzed with the LSRII flow cytometer (Becton-Dickinson). PI (Propidium Iodide) exclusion was used to gate viable cells.

Each structure is given as a SMILES string.

`CC(C)c1ccc(S(=O)(=O)N2CCSC(C)(C)[C@@H]2C(=O)NO)cc1` [Compound 3, (3S)—N-hydroxy-4-[(4-isopropylphenyl)sulfonyl]-2,2-dimethyl-3-thiomorpholine carboxamide]: the half-maximal inhibitory concentration (IC50) was 2.5 µM in assay [1], above 20 µM in [5], above 20 µM in assay [6] and 2.5 µM in [9]. The fold induction at 20 µM in [2] turned out to be 6.3; in [3] it was 2.1; in assay [4] it was 1; in assay [7] it was 1. Also, in assay [8], the “effect of Z-VAD treatment on compound induced apoptosis (Annexin V positive cells)” value is “fully impaired”.

As to `CCc1ccc(S(=O)(=O)N2CCSC(C)(C)[C@@H]2C(=O)NO)cc1` [Compound 8, (3S)—N-hydroxy-4-[(4-ethylphenyl)sulfonyl]-2,2-dimethyl-3-thiomorpholine carboxamide], the IC50 was 7.5 µM in assay [1], above 20 µM in assay [5], above 20 µM in assay [6] and 5 µM in assay [9]. In addition, the fold induction at 20 µM in [2] was found to be 5.7; in [3], 2.3. Also, the “percentage of cells having TdT positive nuclei in tumors” value in assay [10] is “rare”.

For `COc1cccc2c1C(=O)c1c(O)c3c(c(O)c1C2=O)C[C@@](O)(C(=O)CO)C[C@@H]3O[C@H]1C[C@H](N)[C@H](O)[C@H](C)O1` [doxorubicin, reference compound], the “aldefluor ratio (percent ALDH+ cells treated vs DMSO)” value in the assay on Cancer stem cells (CSCs) is “increases it”.
